Earlier results, collected in US20240124437A1, “INJECTABLE LURASIDONE SUSPENSION AND PREPARATION METHOD THEREFOR” (Sichuan Kelun Pharmaceutical Research Institute Co., Ltd., priority 2021, published 2024).

Conditions: oral tablets

## O=C1[C@@H]2[C@H]3CC[C@H](C3)[C@@H]2C(=O)N1C[C@@H]1CCCC[C@H]1CN1CCN(c2nsc3ccccc23)CC1 [lurasidone]
  oral bioavailability: 9%-19%
